# In patent US9115363B2, “Gene expression and eradication system in Helicobacter pylori” (priority 2011, dated 2015):
# “And” between values parts separate entries of the source, which are not always exact repeats. Identical values can stand only once.
# Experiments:
# [1] = test system: TetR-controlled GFP expression (uPtetO-GFP); experiment: GFP reporter assay, liquid culture (BHI), induction by ATc; format: cell-based, H. pylori; conditions: for induction of GFP expression: 100 ng/mL ATc, BHI media
# Procedure: 5 mL cultures were grown for 14 h and then induced with 200 ng/mL ATc unless otherwise stated. Bacteria were harvested by centrifugation, washed twice with PBS and resuspended to a density of 20D600. Then, 0.1 ml of the bacterial suspension was transferred into black 96-well plates, and fluorescence at 520 nm after excitation at 485 nm was measured in using the POLARstar Omega platereader.
# [2] = test system: urePtetO induction of Tet-ON strains; experiment: Urease plate assay; format: cell-based, H. pylori; conditions: for ATc concentration at which significant urease activity is detected: after 24 h
# revTetR = revTetR (Escherichia coli, UniProt P0ACT4); conditions: cited from earlier work
# Chain of revTetR (P0ACT4 with tags, fused parts or gaps E15A/L17G/T20V/D23E/L25V/I36V): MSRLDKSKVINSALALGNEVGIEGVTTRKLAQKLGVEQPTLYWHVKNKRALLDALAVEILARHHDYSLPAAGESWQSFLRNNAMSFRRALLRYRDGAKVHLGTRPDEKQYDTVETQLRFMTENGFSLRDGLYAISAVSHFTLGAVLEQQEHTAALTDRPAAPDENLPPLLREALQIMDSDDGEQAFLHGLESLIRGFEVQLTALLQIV
# [3] = test system: TetR-controlled GFP expression; experiment: Kinetics of uPtetO1-GFP induction by immunoblotting; format: cell-based, H. pylori
# Procedure: (§1) Immunoassays—SDS-PAGE and Western Blot Analysis
# Whole cell lysates of bacteria growing on either chloramphenicol or streptomycin plates was resuspended in phosphate-buffered saline (PBS) buffer. Cells were pelleted and resuspended in lysis buffer (50 mM Tris-HCl, 250 mM NaCl, 1% triton X-100) and incubated on ice for 15 min. Samples were then sonicated for 10 sec. Insoluble cell debris was removed by centrifugation at 13,000 rpm form 10 min at 4° C. Cell lysates were mixed with sodium dodecyl sulfate (SDS) sample buffer and incubated at 95° C. for 10 min. The proteins were separated by 10% SDS-polyacrylamide gel electrophoresis (PAGE) and electrotransferred to a pvdf (0.22 μm Immobulon, Millipore) membrane at 4° C. with a constant voltage of 90 V in transfer buffer (192 mM glycine, 25 mM Tris, 20% [vol/vol] methanol) for 2 hours. The membrane was blocked by using 2% BSA (Sigma) in PBST (150 mM NaCl, 10 mM Tris-C1, pH 7.0, 0.1% [vol/vol] Tween 20) and then incubated with the appropriate primary antibody, washed and then incubated with a secondary antibody containing a horseradish peroxidise (HRP) conjugate. The membrane was washed again and detection of secondary HRP conjugate was accomplished by chemiluminescence (Sigma). […] Chemiluminescence was detected using LAS 3000 (Fujifilm)(software Image reader LAS 3000 V2.2)
# urease activity = experiment: Urease disc diffusion assay; format: cell-based, H. pylori; conditions: plate inoculated with untreated bacteria
# Procedure: Bacteria were plated onto urease plates, and blank discs were placed onto the inoculated plate. 10 μL of ATc was placed onto each disc and plates were incubated under microaerophilic conditions and examined for colour change every […].
# TetR = TetR (Escherichia coli, UniProt P0ACT4, D23E/I36V/T20V); conditions: cited from earlier work
# Chain of TetR (P0ACT4 with tags, fused parts or gaps T20V/D23E/I36V): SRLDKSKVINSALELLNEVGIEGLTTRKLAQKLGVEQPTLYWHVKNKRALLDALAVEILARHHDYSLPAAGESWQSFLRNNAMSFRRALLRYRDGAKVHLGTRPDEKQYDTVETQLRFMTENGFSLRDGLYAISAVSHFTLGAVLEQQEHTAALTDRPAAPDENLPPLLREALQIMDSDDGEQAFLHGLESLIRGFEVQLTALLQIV
# H. pylori = experiment: Minimal inhibitory concentration of ATc in liquid culture; format: cell-based; conditions: MIC as measured in liquid culture; maximal induction at 100 ng/mL
# [4] = test system: urease activity of X47 urePtetO strains; experiment: Liquid urease activity assay; format: cell-based, H. pylori
# Procedure: Bacteria were grown on CBA plates with or without 50 ng/mL ATc for two successive passages. Bacteria were resuspended in cold buffer A (25 mM phosphate buffer, pH 6.8) and standardized to an OD600 of 4.0. 50 μL of standardized bacterial suspension was diluted with 50 μL of buffer B (25 mM phosphate buffer, pH 6.8, 0.2% tween-20). In 96 well plate, 25 μL of diluted bacterial suspension was diluted with 150 μL of buffer C (25 mM phosphate buffer, pH 6.8, 250 μM phenol red) and incubated for 5 min at 37° C. 75 μL of urea solution (0.5 M) was then added and the absorbance at 560 nm was measured every 72 seconds for 75 cycles using a POLARstar Omega (BGM Labtech) platereader. Activity was measured as the rate of change in absorbance over time and expressed as percent of urease activity of the wild-type parent strain. All urease activity measurements were carried out in triplicate and experiments were repeated three times.
# [5] = test system: urePtetO promoters (UreB subunit); experiment: Immunoblotting of UreB in urePtetO strains; format: cell-based, H. pylori
# Procedure: as §1
# Whole cell lysates of bacteria growing on either chloramphenicol or streptomycin plates was resuspended in phosphate-buffered saline (PBS) buffer. Cells were pelleted and resuspended in lysis buffer (50 mM Tris-HCl, 250 mM NaCl, 1% triton X-100) and incubated on ice for 15 min. Samples were then sonicated for 10 sec. Insoluble cell debris was removed by centrifugation at 13,000 rpm form 10 min at 4° C. Cell lysates were mixed with sodium dodecyl sulfate (SDS) sample buffer and incubated at 95° C. for 10 min. The proteins were separated by 10% SDS-polyacrylamide gel electrophoresis (PAGE) and electrotransferred to a pvdf (0.22 μm Immobulon, Millipore) membrane at 4° C. with a constant voltage of 90 V in transfer buffer (192 mM glycine, 25 mM Tris, 20% [vol/vol] methanol) for 2 hours. The membrane was blocked by using 2% BSA (Sigma) in PBST (150 mM NaCl, 10 mM Tris-C1, pH 7.0, 0.1% [vol/vol] Tween 20) and then incubated with the appropriate primary antibody, washed and then incubated with a secondary antibody containing a horseradish peroxidise (HRP) conjugate. The membrane was washed again and detection of secondary HRP conjugate was accomplished by chemiluminescence (Sigma). For detection of TetR and revTetR, rabbit polyclonal IgG anti TetR (MoBiTec) at a dilution of 1:2000 was used as the primary. For detection of UreB subunit, mouse monoclonal IgG anti UreB (Austral Biologicals) was used at a dilution of 1:8000. For detection of GFP, rabbit polyclonal anti GFP (Ondek) was used at a dilution of 1:2000. Secondary antibodies, mouse anti-rabbit-HRP and rabbit anti-mouse-HRP (Jackson ImmunoResearch Laboratories) were used at a dilution of 1:10,000. Chemiluminescence was detected using LAS 3000 (Fujifilm)(software Image reader LAS 3000 V2.2)
# [6] = test system: uPtetO-cre in X47 mdaB:: ptetR2; experiment: Immunoblotting of conditional cre expression; format: cell-based, H. pylori; conditions: 50 ng/ml ATc, liquid culture, trpA:: uPtetO-cre, both strains
# Source text: In order to conditionally express the Cre recombinase in H. pylori two Tet responsive promoters uPtetO1 and uPtetO2 were selected to control the cre expression. They consist of the core urease promoter containing a C to T mutation in the −10 box and one tetO site just downstream of the transcriptional start point. uPtetO2 contains a second tetO site between the −35 and −10 box. A synthetic H. pylori codon usage optimized version of the cre gene was amplified and cloned into the plasmid pTrpA-uPtetO1-GFP and pTrpA-uPtetO2-GFP to replace GFP. Natural transformation of the recipient strain H. pylori X47 mdaB:: ptetR2; trpA:: rpsL-CAT with these plasmids (pTrpA-uPtetO(1/2)-Cre) allowed integration of uPtetO-cre fusions in the chromosome at the trpA locus by homologous recombination. The conditional expression of cre in the constructed strains X47 mdaB:: ptetR2; trpA:: uPtetO-cre was analyzed by immunoblotting. Bacteria were grown in liquid culture the presence of none or 50 ng/ml ATc, respectively.
# Immunoassay—SDS-PAGE and Western Blot Analysis.
# Bacteria were grown for 24 hours on selective plates or in selective liquid media. Cells were harvested and resuspended in phosphate-buffered saline (PBS) buffer. […] Chemiluminescence was detected using LAS 3000 (Fujifilm)(software Image reader LAS 3000 V2.2)
# ptetR2 and uPtetO1-GFP = experiment: GFP disc diffusion assay; format: cell-based, H. pylori; conditions: bacterial lawns containing ptetR2 and uPtetO1-GFP; after 24 hours of incubation
# [7] = test system: B128 pHel2-IEC-Ts-FliCsyn transconjugants; experiment: Immunoblotting of conditional fliCsyn expression; format: cell-based, H. pylori; conditions: selective blood agar plates with 50 ng/ml ATc; all tested clones
# Procedure: The conditional expression of fliCsyn and expression of TetRs in the transconjugants B128 pHel2-IEC-Ts-FliCsyn was analyzed by immunobloting.
# Bacteria were grown for 24 hours on selective plates or in selective liquid media. Cells were harvested and resuspended in phosphate-buffered saline (PBS) buffer. Samples were then sonicated for 10 seconds, mixed with sodium dodecyl sulfate (SDS) sample buffer and incubated at 37° C. for 15 min. Insoluble cell debris was removed by centrifugation at 13,000 rpm for 1 min. The proteins were separated by 10% SDS-polyacrylamide gel electrophoresis (PAGE) and electro-transferred to a PVDF membrane (Immobilon-P Transfer (0.45 μm, Millipore) with a constant voltage of 100 V in transfer buffer (192 mM glycine, 25 mM Tris, 20% [vol/vol] methanol) for 1 hour. The membranes were blocked with 3% BSA (Sigma) in PBST (150 mM NaCl, 10 mM Tris-C1, pH 7.0, 0.1% [vol/vol] Tween 20) and then incubated with the appropriate primary antibody, washed and then incubated with a secondary antibody containing a horseradish peroxidise (HRP) conjugate. The membrane was washed again and detection of secondary HRP conjugate was accomplished by chemiluminescence (Sigma). For detection of Cre recombinase, rabbit polyclonal IgG anti Cre (abcam) was used at a dilution of 1:1000. […] Chemiluminescence was detected using LAS 3000 (Fujifilm)(software Image reader LAS 3000 V2.2)
# [8] = test system: GFP expression in strains expressing TetR or revTetR; experiment: GFP fluorescence on blood agar plates with ATc; format: cell-based, H. pylori; conditions: 50 ng/mL ATc in blood agar plates
# Procedure: Bacteria were plated onto fresh CBA plates with or without 50 ng/mL ATc and visualized after 24 hr incubation. For Tet-OFF strains, ptetR(2,4,6) bacteria were passaged twice on CBA plates containing ATc prior to the experiments, to allow strains enough time to repress GFP expression.
# [9] = test system: Tet-ON mdaB::ptetR; urePtetO strains; experiment: In vivo induction of urePtetO by doxycycline, C57BL/6J infection model; parameters: species or system H. pylori; conditions: for dox concentration at which the strain could be re-isolated: one week of infection, C57BL/6J mice
# Procedure: Regulation of urePtetO to drive the expression of urease by dox was evaluated using a C57BL/6J infection model. Mice were orally challenged with one of several Tet-ON, mdaB::ptetR; urePtetO strains and supplemented with a range of dox concentrations that were within the tolerance of X47. Urease is known to be an essential gene required for colonization, and therefore Tet-ON urePtetO strains should not be able to colonize in the absence of the inducer. […] Infection of urePtetO strains is dependent on dox supplementation (FIG. 9F). Mice were supplemented with dox for two weeks after infection to establish successful colonization of mdaB:: ptetR4; urePtetOI. […] Infection by strain mdaB::ptetR4; urePtetOI could be maintained for at least 4 weeks with dox supplementation.
# 6-7 week old C57BL/6J female mice were orally gavaged once with 200 μL of 1×10^9 CFU/mL bacteria, that had been passaged on CBA plates containing 50 ng/mL ATc to induce expression of tetracycline responsive genes. Mice were supplemented with doxycycline in their drinking water containing 5% sucrose. Mice were sacrificed at indicated time points and stomachs were removed and homogenized in 1 mL BHI using a tissue lysing agent (Retch). Homogenates were serially diluted and plated out on H. pylori selective plates, (CBA containing 5% Horse blood, Dent, polymyxin B 2500 U/L or 0.2975 mg/L, nalidixic acid 10 mg/L and Bacitracin 100 mg/L). Colonies were counted to calculate bacteria load. Re-isolated clones were checked for tet responsive gene expression and sequenced when appropriate.
smiles,measurement,setting,value
"Cc1c2c(c(O)c3c(O)cccc13)C(=O)[C@]1(O)C(=O)C(C(N)=O)=C(O)[C@@H](N(C)C)[C@@H]1C2 [ATc, Anhydrotetracycline]",induction of GFP expression,"[1]; ptetR2 uPtetO1, all three recipient loci",4-9 fold
same,induction of GFP expression,"[1]; ptetR4 uPtetO1, all three recipient loci",13-80 fold
same,induction of GFP expression,"[1]; ptetR6 uPtetO1, all three recipient loci",2-5 fold
same,induction of GFP expression,"[1]; uPtetO2 strains, ptetR2",1.5-3 fold
same,induction of GFP expression,"[1]; uPtetO2 strains, ptetR4",3-8 fold
same,induction of GFP expression,"[1]; uPtetO2 strains, ptetR6",3-8 fold
same,ATc concentration giving maximal GFP activities,[1]; bacteria grown in different concentrations of ATc,100 ng/mL
same,GFP activities compared with maximal induction,[1]; induction with 25 ng/ml ATc,2.4 fold lower
same,ATc concentration sufficient to induce all five urePtetO promoters,[2]; ptetR4 strains,1 ng/mL
same,ATc concentrations at which urease activity decreases,[2]; ptetR4 strains,above 25 ng/mL
same,ATc concentrations at which urease activity decreases,[2]; ptetR6 strains,above 50 ng/mL
same,ATc concentration at which urease activity is evident,"[2]; ptetR6 strains, urePtetOIII, only after 48 hr",25 ng/mL and 50 ng/mL
same,ATc concentration at which significant urease activity is detected,"[2]; ptetR6 strains, urePtetOIV",10 ng/mL
same,ATc concentration at which significant urease activity is detected,"[2]; ptetR6 strains, urePtetOV",5 ng/mL
same,binding affinity for revTetR,revTetR,very high binding affinity
same,time of maximal GFP activities after the addition of ATc,[3]; ptetR2 and ptetR4 containing bacteria,16 h
same,kinetics of GFP induction,[3]; ptetR6 containing bacteria,strong but delayed induction
same,urease activity by diffusion of ATc from disc,urease activity,induced
same,binding affinity for TetR,TetR,very high binding affinity
same,ATc concentration of maximal induction relative to the minimal inhibitory concentration (MIC),H. pylori,10 fold below
same,urease activity on addition of ATc,"[4]; strains ptetR2, urePtetOI and V, ptetR3, urePtetOIV and ptetR6, urePtetOV",only partially restored
same,urease activity on addition of ATc,"[4]; strains ptetR2, urePtetOII, ptetR3, urePtetOI, II and III",completely restored urease activity
same,urease activity on addition of ATc,[4]; the other Tet-ON strains,below 10 % of wild-type urease activity
same,repression of UreB expression,"[5]; constructs I, II and V of the Tet-OFF system",Incomplete repression
same,response of urePtetO to ATc,[5]; strains harbouring ptetR3,did not display response
same,abundance of the UreB subunit upon the addition of ATc,[5]; strains harbouring the revTetR repressor (Tet-OFF system),reduced below the detection limit
same,cre expression,[6],induced
same,GFP expression around ATc discs,ptetR2 and uPtetO1-GFP,halo of GFP expression is evident around each disc
same,expression of FliCsyn,[7],showed expression of FliCsyn
same,GFP expression (observed fluorescence intensities),[8]; strains expressing TetR,induction
same,GFP expression (observed fluorescence intensities),[8]; strains expressing revTetR,repression
"C[C@H]1c2cccc(O)c2C(=O)C2=C(O)[C@]3(O)C(=O)C(C(N)=O)=C(O)[C@@H](N(C)C)[C@@H]3[C@@H](O)[C@@H]21 [dox, doxycycline]",time infection could be maintained with dox supplementation,"[9]; strain mdaB::ptetR4, urePtetOI",at least 4 weeks
same,dox concentration at which the strain could be re-isolated,"[9]; strain mdaB::ptetR4, urePtetOI",0.1 to 5 µg/mL
same,dox concentration at which the strain could be re-isolated,"[9]; strain mdaB::ptetR6, urePtetOV",5 to 20 µg/mL
